Values of other authors as cited in patent US20240148640A1, “TOPICAL OXYBUTYNIN FOR HOT FLASHES” (CELISTA PHARMACEUTICALS LLC, priority 2022, published 2024).

SMILES: CCN(CC)CC#CCOC(=O)C(O)(c1ccccc1)C1CCCCC1 (centres unmarked) [oxybutynin]
- reduction of hot flashes (given orally (Leon-Ferre et al., 2020)): 75%
- frequency and intensity of hot flashes (women with frequent hot flashes, incl. breast cancer survivors on tamoxifen or aromatase inhibitors (Kligman et al., 2010)): reduced the frequency and intensity of hot flashes
